From patent US20040266880A1, “Antipruritics” (priority 2002, published 2004)
Structures can show the parent of a compound that is named as a salt.

Key:
Assay type in all cases: in vivo
[1] = tested on: NC/Nga mice manifesting atopic dermatitis; experiment: Test Example 2: effect on the spontaneous, itch-evoked scratching behavior of NC mice (percent itch suppression); settings: for % Inhibition (percent itch suppression): total 24-hr scratching counts before vs after, N = 8
Method: Twenty-week-old NC/Nga mice each weighing about 30 g and manifesting atopic dermatitis were purchased from SLC and subjected to the following experiment. A magnet was buried in both hind paws of each mouse and by detecting its magnetism, the movement of the paws was measured with an itch measuring system (product of Neuroscience). Among the scratching actions, those lasting 1.5 seconds or longer were considered itch-evoked and their number was counted continuously. […] Prostaglandin E2 (PGE2; Cayman Chemical), prostaglandin D2 (PGD2; Cayman Chemical), limaprost (synthetic), sulprostone (synthetic) and beraprost (synthetic) were used as drugs according to the present invention. The subsequent 24-hr itch-evoked scratching behavior was measured and the number of itch-evoked scratchings after drug application was compared with the initial count. The experimental data was processed to calculate the percent itch suppression on the basis of the total 24-hr itch-evoked scratching counts before and after drug application (Table 2). [formula]
For significance testing, the itch-evoked scratching counts that were obtained before and after drug application from individual animals in each group treated with a specific concentration of drug were processed by a paired t-test. Differences with a significance level of 0.5% or less were determined as “significant.”
The same test was repeated using 100% ethanol as a control and, as comparative drugs, dexamethasone (a steroid; Wako Pure Chemical Industries, Ltd.), tacrolimus (FK-506, an immunosuppressive; Fujisawa Pharmaceutical Co., Ltd.) and chlorpheniramine maleate (an antihistamine; Kongo Chemical Co., Ltd.) at the concentrations shown in Table 2 below, provided that chlorpheniramine maleate was administered orally.

[2] = tested on: dermatitis manifesting NC mice; experiment: Test Example 3: effect on dermatitis manifesting NC mouse models (dermatitis score); settings: 0.01% in 100% ethanol, 200 μl on dorsal back seven times a week for 4 weeks; FIGS. 1 and 2; P<0.05
Method: By suitably modifying a method known to the skilled artisan (Jpn. J. Pharmacol. 76, 175-183 (1998) Jun Hiroi, et al. Effects of Tacrolimus Hydrate (FK-506) Ointment on Spontaneous Dermatitis in NC/Nga Mice), the following test was conducted in order to confirm the antipruritic effect of prostaglandins. (Method) Animals: Four-week old SPF NC mice (male) were purchased from Japan SLC; right after their arrival, the SPF NC mice were kept together with dermatitis manifesting male NC mice (older than 20 weeks) for 2 weeks under the following conditions so as to induce itch-evoked scratching behavior. A group of mice manifesting dermatitis and another group of mice not manifesting dermatitis, each consisting of four animals, were allowed to cohabit in a sawdust cage (34×17×39 cm) and kept in an animal house set at room temperature (23±3° C.) and at a humidity of 55±15% under illumination for 12 hours (from 7:00 am to […]). After 2-wk cohabitation, the purchased mice were taken out of the cage and transferred into another cage, where a group of 8 animals were further kept for 14 weeks until the test. […] The mean value ± standard deviation was calculated from the dermatitis scores for each group, and then statistically processed by t-test to determine statistical significance between each drug administration group and ethanol-treated group.

[3] = tested on: NC/Nga mice manifesting atopic dermatitis; experiment: Test Example 1: effect on the spontaneous, itch-evoked scratching behavior of NC mice; settings: for % Occurrence of scratching behavior: 0.1% in 100% ethanol, 0.2 ml/mouse on dorsal skin, count before drug application set to 100%, scratchings 1.5 seconds or longer, N = 6
Method: Twenty-week-old NC/Nga mice each weighing about 30 g and manifesting atopic dermatitis were purchased from SLC and subjected to the following experiment. A magnet was buried in both hind paws of each mouse and by detecting its magnetism, the movement of the paws was measured with an itch measuring system (product of Neuroscience). Among the scratching actions, those lasting 1.5 seconds or longer were considered itch-evoked and their number was counted continuously. […] Since there was a wide range of variation among individual animals, the experimental data was scored assuming that the initial count before drug application was set to 100%. The same test was repeated using 100% ethanol as a control and dexamethasone (a steroid; Wako Pure Chemical Industries, Ltd.) and tacrolimus (an immunosuppressive; Fujisawa Pharmaceutical Co., Ltd.) as comparative drugs.

[4] = tested on: NC/Nga mice manifesting atopic dermatitis; experiment: Case 2: effects of external use of tacrolimus and dexamethasone on spontaneous itch-evoked scratching behavior in NC/Nga mice; settings: 0.1% in 100% ethanol, 200 μl applied onto head and dorsal skin; paw movements lasting 1.5 seconds or longer; before application: tacrolimus group 600 ± 64, dexamethasone group 567 ± 77
Method: Experimental animals used were 14-week-old NC/Nga male mice, each weighing about 30 g and manifesting atopic dermatitis, and were divided into groups of 6 mice each.
To perform this test, a commercially available itch measuring system (product of Neuroscience) was used. After magnets for scratch measurement were inserted into both hind paws of each of the above animals, the animals were individually placed in a measurement cage and measured for the number of scratchings over 24 hours (the value before drug application). Then, 200 μl each of 0.1% tacrolimus (Fujisawa Pharmaceutical Co., Ltd.) and dexamethasone (Wako Pure Chemical Industries, Ltd.) dissolved in 100% ethanol were applied onto the head and dorsal skin, followed by recording again the number of scratchings over 24 hours (the value after drug application). The control group received 100% ethanol alone. The results obtained were processed to score itch-evoked scratching behavior, assuming that each paw movement lasting 1.5 seconds or longer was counted as one scratch reflex, followed by statistical analysis to determine statistical significance between the values before and after drug application.

[5] = concentration 0.01% in 100% ethanol, 0.2 ml/mouse on dorsal skin
[6] = concentration 0.1% in 100% ethanol, 0.2 ml/mouse on dorsal skin
[7] = external application of 0.1%, same extent as dexamethasone and tacrolimus

SMILES	% Inhibition (percent itch suppression) [1, 5] [%]	% Inhibition (percent itch suppression) [1, 6] [%]	% Occurrence of scratching behavior [3] [%]	further results
CCCC[C@H](C)C[C@H](O)/C=C/[C@H]1[C@H](O)CC(=O)[C@@H]1CCCC/C=C/C(=O)O [Limaprost, limaprost]	79.9	–	–	% Inhibition (percent itch suppression) ([1]; concentration 0.001% in 100% ethanol, 0.2 ml/mouse on dorsal skin): 36.2%; effect on dermatitis scores compared to the ethanol-treated group [2]: significant suppressive effect
CN(C)CCC(c1ccc(Cl)cc1)c1ccccn1 (centres unmarked) [Chlorpheniramine, chlorpheniramine maleate]	–	–	–	% Inhibition (percent itch suppression) ([1]; 10 mg/kg, p.o.): 3.56%; suppression of spontaneous itch-evoked scratching behavior (in words) ([1]; administered orally, 10 mg/kg): no suppression
CCCCC[C@H](O)/C=C/[C@H]1[C@H](O)CC(=O)[C@@H]1C/C=C\CCCC(=O)O [PGE2, prostaglandin E2]	–	54.3	46 ± 10	effect on spontaneous itch-evoked scratching behavior in NC mice (in words) [1, 7]: strongly reduced; effect on spontaneous itch-evoked scratching behavior (in words) [3, 7]: strongly reduced
CC#CCC(C)[C@H](O)/C=C/[C@@H]1[C@H]2c3cccc(CCCC(=O)O)c3O[C@H]2C[C@H]1O (mixture of isomers) [Beraprost, beraprost]	45.6	56.9	–	effect on dermatitis scores compared to the ethanol-treated group [2]: significant suppressive effect
CS(=O)(=O)NC(=O)CCC/C=C\C[C@H]1C(=O)C[C@@H](O)[C@@H]1/C=C/[C@@H](O)COc1ccccc1 [Sulprostone, sulprostone]	24.0	–	–	–
CCCCC[C@H](O)/C=C/[C@H]1C(=O)C[C@H](O)[C@@H]1C/C=C\CCCC(=O)O [PGD2, prostaglandin D2]	56.3	–	–	–
C=CC[C@@H]1/C=C(\C)C[C@H](C)C[C@H](OC)[C@H]2O[C@@](O)(C(=O)C(=O)N3CCCC[C@H]3C(=O)O[C@H](/C(C)=C/[C@@H]3CC[C@@H](O)[C@H](OC)C3)[C@H](C)[C@@H](O)CC1=O)[C@H](C)C[C@@H]2OC [Tacrolimus, tacrolimus]	–	55.5	45 ± 8	number of scratchings over 24 hours, after drug application [4]: 267 ± 45
C[C@@H]1C[C@H]2[C@@H]3CCC4=CC(=O)C=C[C@]4(C)[C@@]3(F)[C@@H](O)C[C@]2(C)[C@@]1(O)C(=O)CO [Dexamethasone, dexamethasone]	–	49.5	50 ± 9	number of scratchings over 24 hours, after drug application [4]: 286 ± 52
